Measurements published in patent US20080051424A1, “Heterocyclyl-substituted nonadepsipeptides” (priority 2004, published 2008).
Starred links: 1 amine or outer side, 2 acyl side, 3 side chain; linkers in the order of their positions; H or OH if unused. Positions of bridges follow the written chain, without caps; N, C: chain ends. Non-standard residues stand in square brackets, D forms with d. Residues, ends and D or L forms follow the SMILES beside them. Phe(3R-OH) = O=C([C@@H](N[*:1])[C@H](O[*:3])c1ccccc1)[*:2]; X1 = CC1CC(C)NC(NCCC[C@@H](N[*:1])C(=O)[*:2])=N1; Asn(3S-OH) = NC(=O)[C@@H](O)[C@H](N)C(=O)O; Leu(3R-OH) = CC(C)[C@@H](O)[C@H](N)C(=O)O; aThr = C[C@H](O)[C@H](N)C(=O)O

Columns and labels:
[1] = test system: Streptococcus pneumoniae G9a; type: cell-based
Experimental: (§1) Determination of the Minimum Inhibitory Concentration (MIC): The MIC is determined in the liquid dilution test in accordance with the NCCLS guidelines. Overnight cultures of Staphylococcus aureus 133, Entercococcus faecalis 27159, E. faecium 4147 and Streptococcus pneumoniae G9a are incubated with the described test substances in a 1:2 dilution series. The MIC determination is carried out with a cell count of 10^5 microorganisms per ml in Isosensitest medium (Difco, Irvine/USA), with the exception of S. pneumoniae, which is tested in BHI broth (Difco, Irvine/USA) with 10% bovine serum at a cell count of 10^6 microorganisms per ml. The cultures are incubated at 37° C. for 18-24 hours, S. pneumoniae in the presence of 10% CO2. The lowest substance concentration in each case at which no visible bacterial growth occurs any more is defined as the MIC. The MIC values are reported in μg/ml.

[2] = test system: Staphylococcus aureus 133; type: cell-based
Experimental: as §1

E. faecalis ICB 27159 = type: cell-based, Enterococcus faecalis
Experimental: as §1

CC[C@H](C)[C@@H]1NC(=O)[C@@H](CCCNC2=NC(C)CC(C)N2)NC(=O)[C@H](CC(C)C)NC(=O)[C@H]([C@H](O)C(C)C)NC(=O)[C@@H](NC(=O)[C@H](CC(C)C)NC(=O)[C@H](N)CC(C)C)[C@@H](c2ccccc2)OC(=O)[C@H](CO)NC(=O)[C@H]([C@H](O)C(N)=O)NC(=O)CNC(=O)[C@H]([C@H](C)O)NC1=O.O=C(O)C(F)(F)F.O=C(O)C(F)(F)F (stereo partly drawn) [Example 3, N^ω.6,N^ω′.6-(Pentane[2,4]diyl)lysobactin] (H-[dL]L[Phe(3R-OH)][Leu(3R-OH)]L[X1]I[aThr]G[Asn(3S-OH)]S; ester 3-C)
MIC S. pneumoniae [1]: 0.5 µg/mL
MIC S. aureus 133 [2]: 0.5 µg/mL
MIC E. faecalis ICB 27159 (E. faecalis ICB 27159): 2 µg/mL
